Assays:
[1] = molecular target: T1, Kv1.6 (Homo sapiens, UniProt P17658); test: Patch clamp assay (QPatch), Kv1.6; assay type: cell-based; details: for IC50: QPatch, CHO cells stably expressing human Kv1.6, read-out: Potency IC50, Kv1.6; for Selectivity Kv1.6/Kv1.3: ratio of IC50 Kv1.6/Kv1.3
T1 construct: expressed in transfected cells

[2] = system: T-cell activation in rat whole blood; test: Example 4: IL-17A release in thapsigargin stimulated rat whole blood; assay type: cell-based, rat (Lewis or Sprague-Dawley); details: 24 Hr, at least 2 replicates, unit inferred, read-out: IC50 (inhibition of IL-17A release)
Source text: Rat whole blood was used to assess the potency of Kv1.3 inhibitor peptides on T-cell activation as determined by IL-17A release after stimulation with thapsigargin. Addition of thapsigargin results in activation of a signalling cascade ending up in activation of T cell proliferation and cytokine production where the Kv1.3 ion channel plays a key role, so activity of Kv1.3 inhibitors in primary cells can be measured in this experimental system.
Rat whole blood was obtained from healthy, naïve Lewis or Sprague-Dawley rats that were terminally bleed from the heart using Sodium Heparin blood sampling tubes for collection. Peptides were diluted to 4× final testing concentrations in assay buffer (DMEM+GlutaMAX), GlutaMAX is a medium comprising 3.97 mM L-alanine-L-glutamine (Gibco Cat #61965026) supplemented with 25 mM HEPES buffer, 1 mM Sodium Pyruvate, 100 units/ml Penicillin, 100 μg/ml Streptomycin and 0.05% Casein from bovine milk (Sigma-Aldrich)) and 25 μl was added to wells of a 96 well plate. Then 50 μl whole rat blood was added and incubated for minimum 5 minutes at room temperature to allow compound binding. Then 25 μl 40 μM thapsigargin diluted in assay buffer was added to all wells of the assay plates to activate the cells, followed by incubation for 24 Hr at 37° C./5% CO2 in a humidified box. The assay plates were centrifuged for 10 min at 300 g at 4° C. and the supernatants were transferred to new plates. The concentrations of IL-17A released to the supernatants were measured using a Rat IL-17A ELISA Kit (Abcam Cat #ab214028) as recommended by the manufacturer. Samples were diluted 2.5-fold by transferring 20 μl of the supernatants to wells on ELISA plates containing 30 μl buffer 75BS from the detection kit.
Data from peptides eliciting an inhibition of IL-17A were normalised relative to full thapsigargin activation (no inhibitor added) and no activation controls (addition of assay buffer instead of thapsigargin) to calculate the IC50 from the concentration response curve.
Results are shown in Table 5, expressed as IC50, with standard deviation (IC50_SD). All values are derived from at least 2 replicates. The biological effects ex vivo show a correlation with the potency of the peptides.

[3] = molecular target: T2, Kv1.2 (Homo sapiens, UniProt P16389); test: Patch clamp assay (QPatch), Kv1.2; assay type: cell-based; details: for IC50: QPatch, CHO cells stably expressing human Kv1.2, read-out: Potency IC50, Kv1.2; for Selectivity Kv1.2/Kv1.3: ratio of IC50 Kv1.2/Kv1.3
T2 construct: expressed in transfected cells

[4] = molecular target: T3, Kv1.3 (Homo sapiens, UniProt P22001); test: Patch clamp assay (QPatch), Kv1.3; assay type: cell-based; details: CHO cells stably expressing human Kv1.3, read-out: Potency IC50, Kv1.3
T3 construct: expressed in transfected cells

[5] = molecular target: T4, Kv1.1 (Homo sapiens, UniProt Q09470); test: Patch clamp assay (QPatch), Kv1.1; assay type: cell-based; details: for IC50: QPatch, CHO cells stably expressing human Kv1.1, read-out: Potency IC50, Kv1.1; for Selectivity Kv1.1/Kv1.3: ratio of IC50 Kv1.1/Kv1.3
T4 construct: expressed in transfected cells
T4 sequence (Q09470 whole entry): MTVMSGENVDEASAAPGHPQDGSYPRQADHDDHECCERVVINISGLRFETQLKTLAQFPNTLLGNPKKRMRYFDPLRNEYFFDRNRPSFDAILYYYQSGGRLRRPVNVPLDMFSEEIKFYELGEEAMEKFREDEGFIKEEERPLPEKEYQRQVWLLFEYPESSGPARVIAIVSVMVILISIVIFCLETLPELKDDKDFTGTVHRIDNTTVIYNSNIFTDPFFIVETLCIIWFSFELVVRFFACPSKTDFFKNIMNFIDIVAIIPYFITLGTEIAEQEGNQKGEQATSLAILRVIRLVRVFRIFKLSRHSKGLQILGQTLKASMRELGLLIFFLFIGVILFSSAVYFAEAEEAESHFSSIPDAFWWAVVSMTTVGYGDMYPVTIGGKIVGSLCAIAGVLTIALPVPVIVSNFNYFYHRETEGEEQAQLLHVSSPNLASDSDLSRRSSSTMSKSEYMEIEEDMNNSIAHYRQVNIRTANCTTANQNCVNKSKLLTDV
Experimental: Selectivity of Kv1.3 inhibitor peptides for Kv1.3 over other potassium ion channels (Kv1.1, Kv1.2 and Kv1.6) was determined using patch clamp assay.
Chinese Hamster Ovary (CHO) cell lines stably expressing exogenous human α-subunits of each potassium ion channel were grown and passaged under standard culture conditions.
The automated, chip-based planar patch clamp device QPatch® was used to quantitate the ionic currents. All recordings were made in the conventional whole-cell configuration after establishment of gigaohm seals. […] During experiments 0.1% (v/v) BSA was included as a vehicle in all external recording solutions. Currents were elicited from a holding potential of −80 mV using a voltage protocol, which shifted the voltage to 30 mV for 500 ms every 15 s.
Concentration-response relationships were established by cumulatively applying seven escalating concentrations of test sample to an individual cell with a recording period of 2 min per compound application.
The efficacy was determined as the mean charge for the last three sweeps at the end of each concentration application period from the cursor positions. The percent inhibition for each test dose application period was calculated as the reduction in mean cursor value (charge) relative to the cursor value measured at the end of the vehicle period and used to calculate the IC50 from the concentration response curve.

T3 sequence (P22001 whole entry): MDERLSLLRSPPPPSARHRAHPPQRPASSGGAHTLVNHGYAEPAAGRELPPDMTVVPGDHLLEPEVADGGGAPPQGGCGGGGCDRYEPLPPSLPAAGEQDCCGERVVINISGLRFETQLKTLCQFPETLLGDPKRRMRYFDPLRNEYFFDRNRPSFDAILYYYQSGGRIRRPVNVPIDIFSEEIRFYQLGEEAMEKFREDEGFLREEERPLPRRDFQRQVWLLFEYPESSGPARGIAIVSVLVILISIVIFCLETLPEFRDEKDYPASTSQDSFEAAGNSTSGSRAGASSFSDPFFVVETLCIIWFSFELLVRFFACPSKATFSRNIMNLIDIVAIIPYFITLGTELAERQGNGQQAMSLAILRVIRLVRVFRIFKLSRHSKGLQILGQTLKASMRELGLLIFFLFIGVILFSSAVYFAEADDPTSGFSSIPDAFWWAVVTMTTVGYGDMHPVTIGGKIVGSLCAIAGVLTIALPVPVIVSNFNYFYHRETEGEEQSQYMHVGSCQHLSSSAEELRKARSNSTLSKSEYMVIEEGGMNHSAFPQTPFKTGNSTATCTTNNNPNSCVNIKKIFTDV
T1 sequence (P17658 whole entry): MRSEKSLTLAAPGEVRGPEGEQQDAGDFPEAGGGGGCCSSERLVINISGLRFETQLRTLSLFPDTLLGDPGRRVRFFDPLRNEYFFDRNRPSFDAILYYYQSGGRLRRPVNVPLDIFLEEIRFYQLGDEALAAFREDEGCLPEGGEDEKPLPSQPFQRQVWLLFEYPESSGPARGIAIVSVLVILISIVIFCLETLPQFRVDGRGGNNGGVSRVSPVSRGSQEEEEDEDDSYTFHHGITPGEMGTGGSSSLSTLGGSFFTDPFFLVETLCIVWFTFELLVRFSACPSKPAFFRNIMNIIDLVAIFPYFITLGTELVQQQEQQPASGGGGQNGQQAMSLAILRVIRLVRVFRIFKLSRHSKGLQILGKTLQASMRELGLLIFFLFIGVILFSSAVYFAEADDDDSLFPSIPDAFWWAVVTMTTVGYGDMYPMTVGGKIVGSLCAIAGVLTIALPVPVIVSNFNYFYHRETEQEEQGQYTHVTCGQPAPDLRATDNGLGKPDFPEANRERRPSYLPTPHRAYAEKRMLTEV
T2 sequence (P16389 whole entry): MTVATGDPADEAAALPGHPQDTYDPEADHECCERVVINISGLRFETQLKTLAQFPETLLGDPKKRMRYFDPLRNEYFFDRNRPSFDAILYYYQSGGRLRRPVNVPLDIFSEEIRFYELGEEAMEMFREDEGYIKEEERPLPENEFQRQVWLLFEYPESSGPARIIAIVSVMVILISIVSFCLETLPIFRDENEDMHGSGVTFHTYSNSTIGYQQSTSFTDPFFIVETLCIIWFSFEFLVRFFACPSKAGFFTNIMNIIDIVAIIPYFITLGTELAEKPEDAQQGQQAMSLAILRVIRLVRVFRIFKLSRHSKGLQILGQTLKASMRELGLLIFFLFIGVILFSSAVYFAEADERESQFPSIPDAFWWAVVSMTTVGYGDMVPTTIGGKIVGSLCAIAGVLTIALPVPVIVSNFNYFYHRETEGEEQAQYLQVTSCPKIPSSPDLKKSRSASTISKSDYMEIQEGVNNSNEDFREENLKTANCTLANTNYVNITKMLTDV

Substance	IC50 [1] [nM]	Selectivity Kv1.6/Kv1.3 [1]	IC50 [2] [nM]	IC50 [3] [nM]	Selectivity Kv1.2/Kv1.3 [3]	IC50 [4] [nM]	IC50 [5] [nM]	Selectivity Kv1.1/Kv1.3 [5]
Ac-C(1)SASVEC(2)KQKC(3)LKAIGSIFGKC(1)[Nle]NKKC(2)KC(3)YPR-NH2 [Peptide 109]	> 3000	>12400	0.88	384	1591	0.24	> 3000	>12400
Ac-LRC(1)SASVEC(2)KQKC(3)LKAIGSIFGKC(1)[Nle]NKKC(2)KC(3)YPR-NH2 [Peptide 114]	2460	7096	0.37	122	352	0.35	> 3000	>8700
Ac-SKC(1)SASVEC(2)KQKC(3)LKAIGSIFGKC(1)[Nle]NKKC(2)KC(3)YPR-NH2 [Peptide 113]	1450	1451	0.36	196	196	1	> 3000	>3000
H-C(1)SASVEC(2)KQKC(3)LKAIGSIFGKC(1)MNKKC(2)KC(3)YPR-OH [Peptide 124]	> 3000	>1400	1.9	1830	878	2.09	> 3000	>1400
H-H[Nle]D[Nle]RC(1)SASVEC(2)KQKC(3)LKAIGSIFGKC(1)[Nle]NKKC(2)KC(3)YPR-NH2 [Peptide 65]			1.2			0.25		
H-NMDMRC(1)SASREC(2)KQKC(3)LKAIGSIFGKC(1)MNKKC(2)KC(3)YPR-NH2 [Peptide 28]	206	1778	0.68	11	94	0.12	> 3000	>25900
H-NMDMRC(1)SASVEC(2)KEKC(3)LKAIGSIFGKC(1)MNKKC(2)KC(3)YPR-NH2 [Peptide 32]	> 3000	>10800	0.86	179	648	0.28	> 3000	>10800
H-NMDMRC(1)SASVEC(2)KLKC(3)LKAIGSIFGKC(1)MNKKC(2)KC(3)YPR-NH2 [Peptide 33]			0.75			0.38		
H-NMDMRC(1)SASVEC(2)KQKC(3)KKAIGSIFGKC(1)MNKKC(2)KC(3)YPR-NH2 [Peptide 20]	435	1955	0.56	45	202	0.22	> 3000	>13500
H-NMDMRC(1)SASVEC(2)KQKC(3)LKAIESIFGKC(1)MNKKC(2)KC(3)YPR-NH2 [Peptide 23]	> 3000	>10200	2.8	181	615	0.29	> 3000	>10200
H-NMDMRC(1)SASVEC(2)KQKC(3)LKAIGSIFGKC(1)MNGKC(2)KC(3)YPR-NH2 [Peptide 37]	> 3000	>9700	1.2	439	1422	0.31	> 3000	>9700
H-NMDMRC(1)SASVEC(2)KQKC(3)LKAIGSIFGKC(1)MNKKC(2)HC(3)YPR-NH2 [Peptide 38]	> 3000	>16100	0.77	338	1816	0.19	> 3000	>16100
H-NMDMRC(1)SASVEC(2)KQKC(3)LKAIGSKFGKC(1)MNKKC(2)KC(3)YPR-NH2 [Peptide 35]	207	490	2.1	100	237	0.42	> 3000	>7100
H-P[Nle]E[Nle]RC(1)[2,4-Diaminobutanoyl]ASVEC(2)KQKC(3)LAAIGSIFGKC(1)[Nle]NKKC(2)KC(3)YPR-OH [Peptide 84]	> 3000	>100000		480	17000	0.028	> 3000	>100000
H-P[Nle]E[Nle]RC(1)[2-Amino-3-guanidinopropionyl]ASVEC(2)KQKC(3)LAAIGSIFGKC(1)[Nle]NKKC(2)KC(3)YPR-OH [Peptide 91]	> 3000	>46000		380	6000	0.064	> 3000	>46000
H-QMDMRC(1)SASVEC(2)KQKC(3)LKAIGRGFGKC(1)MNKKC(2)KC(3)YPR-OH [Peptide 2]	1810	1204		97	65	1.5	> 3000	>2000
H-S[Nle]D[Nle]RC(1)SASVEC(2)AQSC(3)LKAIGSIFGKC(1)MNKKC(2)KC(3)YPR-NH2 [Peptide 81]	> 3000	>14600		1150	5596	0.21	> 3000	>14600
H-S[Nle]D[Nle]RC(1)SASVEC(2)KQKC(3)LKAIGSIFGKC(1)MNKKC(2)RC(3)YPR-NH2 [Peptide 77]			0.86			0.13		
H-S[Nle]D[Nle]RC(1)SASVEC(2)KQKC(3)LKAIGSIFGKC(1)[Nle]NKKC(2)KC(3)YPR-NH2 [Peptide 67]			0.47			0.18		
H-V[Nle]D[Nle]RC(1)SASVEC(2)KQKC(3)LKAIGSIFGKC(1)[Nle]NKKC(2)KC(3)YPR-NH2 [Peptide 69]			0.98			0.32		
H-Y[Nle]D[Nle]RC(1)SASVEC(2)KQKC(3)LKAIGSIFGKC(1)[Nle]NKKC(2)KC(3)YPR-NH2 [Peptide 66]			1.1			0.14		

Source: patent US20260325605A1, “INHIBITORS” (Zealand Pharma A/S, priority 2022, published 2026)
